From patent US11061034B2, “Blood biomarker for use in evaluation of effect of drug therapy on kidney cancer” (PUBLIC UNIVERSITY CORPORATION YOKOHAMA CITY UNIVERSITY, priority 2015, dated 2021)

Test system: kidney cancer
Experiment: Kidney cancer activity by FDG PET/CT during mTOR inhibitor therapy
Assay type: in vivo, human
Procedure: A change in blood PARK7 concentration was observed during treatment in four patients with kidney cancer who began to receive administration of mTOR inhibitor. The blood PARK7 concentration was measured as a concentration of plasma PARK7 with the commercially available ELISA kit in the same manner as in 1, described above, and the change in blood PARK7 level was evaluated by comparing values detected by a luminometer. The therapeutic effect of the mTOR inhibitor was clinically evaluated by FDG PET/CT. Kidney cancer progression was evaluated by FDG PET/CT, in parallel with the measurement of blood PARK7 concentration. FDG is an agent composed of glucose and a positron-emitting nuclide introduced thereto, and it has almost the same behavior in the body as glucose. […] The SUVmax values indicated below the respective images are semi-quantified values of FDG accumulation.

CO[C@H]1C[C@@H]2CC[C@@H](C)[C@@](O)(O2)C(=O)C(=O)N2CCCC[C@H]2C(=O)O[C@H]([C@H](C)C[C@@H]2CC[C@@H](OC(=O)C(C)(CO)CO)[C@H](OC)C2)CC(=O)[C@H](C)/C=C(\C)[C@@H](O)[C@@H](OC)C(=O)[C@H](C)C[C@H](C)/C=C/C=C/C=C/1C [Temsirolimus]
accumulation of FDG (PET/CT) (patient with kidney cancer, Case No. 4 (one case)): no change in accumulation of FDG | accumulation of FDG (PET/CT) (patients with kidney cancer, Case Nos. 1 to 3 (three cases)): decreased accumulation of FDG
